{
  "source": "patent US20260240797A1",
  "about": "“TREATMENT OF ULCERATIVE COLITIS COMPRISING VIDOFLUDIMUS OR A PHARMACEUTICALLY ACCEPTABLE SALT THEREOF” (IMMUNIC AG, priority 2022, published 2026)",
  "key": {"[1]": {"test_system": "patients with moderate-to-severe ulcerative colitis", "experiment": "CALDOSE-1 phase 2 trial (NCT03341962), induction phase efficacy", "format": "in vivo, human", "settings": "for Odds Ratio Estimate to achieve clinical remission versus placebo: active treatment groups of 30/45 mg, multivariate logistical regression"}, "[2]": {"test_system": "patients with moderate-to-severe ulcerative colitis", "experiment": "CALDOSE-1 phase 2 trial, maintenance phase efficacy (Week 50)", "format": "in vivo, human", "settings": "for Clinical Remission Rate at Week 50 (steroid-free): Modified Full Analysis Set MP; for Number of Patients with Clinical Remission at Week 50 (steroid-free): Modified Full Analysis Set MP (corticosteroids during induction)"}, "[3]": {"test_system": "patients with moderate-to-severe ulcerative colitis", "experiment": "CALDOSE-1 phase 2 trial, safety and tolerability", "format": "in vivo, human", "settings": "for Incidence of TEAEs of Special Interest: red blood cells urine positive, hematuria or retroperitoneal pain"}, "[4]": {"test_system": "patients with relapsing remitting MS (rrMS)", "settings": "cited from earlier work"}, "[5]": {"settings": "in vivo; cited from earlier work"}, "human DHODH": {"molecular_target": "human DHODH (Homo sapiens, UniProt Q02127)", "sequence (Q02127 whole entry)": "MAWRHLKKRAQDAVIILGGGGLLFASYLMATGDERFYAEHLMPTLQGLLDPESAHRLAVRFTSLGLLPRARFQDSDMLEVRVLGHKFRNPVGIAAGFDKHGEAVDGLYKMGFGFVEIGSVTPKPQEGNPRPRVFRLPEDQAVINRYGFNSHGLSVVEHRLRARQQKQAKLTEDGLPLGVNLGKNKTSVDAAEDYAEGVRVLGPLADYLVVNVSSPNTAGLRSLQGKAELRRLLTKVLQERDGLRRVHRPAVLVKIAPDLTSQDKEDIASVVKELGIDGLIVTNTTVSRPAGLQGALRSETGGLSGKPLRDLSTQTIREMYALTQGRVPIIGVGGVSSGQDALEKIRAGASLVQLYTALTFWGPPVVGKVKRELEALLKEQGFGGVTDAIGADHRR", "settings": "cited from earlier work"}, "[6]": {"test_system": "T-lymphocyte proliferation", "settings": "in vitro; cited from earlier work"}, "[7]": {"test_system": "secretion of IL-17 and IFNγ", "settings": "in vitro; cited from earlier work"}, "patients with CD": {"test_system": "patients with CD", "settings": "12 weeks, cited from earlier work"}, "patients with UC": {"test_system": "patients with UC", "settings": "12 weeks, cited from earlier work"}, "[8]": {"test_system": "patients with inflammatory bowel disease (IBD)", "settings": "35 mg oral once daily, 12 weeks; cited from earlier work"}, "[9]": {"test_system": "patients with active rheumatoid arthritis", "settings": "35 mg once-daily for 13 weeks; cited from earlier work"}},
  "note": "Where a name gives a salt, the structure may show the parent alone.",
  "data": [
    {"smiles": "COc1cccc(-c2ccc(NC(=O)C3=C(C(=O)O)CCC3)c(F)c2)c1", "note": "[IMU-838, 1-cyclopentene-1-carboxylic acid, 2-(((3-fluoro-3′-methoxy(1,1′-biphenyl)-4-yl)amino)carbonyl)-, calcium salt (2:1)]", "values": [
      {"measurement": "clinical remission at week 10", "setting": "[1]; 10 mg/day, overall intent-to-treat patient population", "value": 14.9, "unit": "%"},
      {"measurement": "clinical remission at week 10", "setting": "[1]; 30 mg/day, overall intent-to-treat patient population", "value": 10.6, "unit": "%"},
      {"measurement": "clinical remission at week 10", "setting": "[1]; 45 mg/day, overall intent-to-treat patient population", "value": 13.6, "unit": "%"},
      {"measurement": "Odds Ratio Estimate to achieve clinical remission versus placebo", "setting": "[1]; with concomitant steroids", "value": 0.58},
      {"measurement": "Odds Ratio Estimate to achieve clinical remission versus placebo", "setting": "[1]; without concomitant steroids", "value": 3.53},
      {"measurement": "rate of clinical remission at week 10", "setting": "[1]; patients concomitantly taking corticosteroids during induction treatment", "value": 11.5, "unit": "%"},
      {"measurement": "clinical remission (primary endpoint) at Week 10", "setting": "[1]; pooled 30 and 45 mg, Full Analysis Set, n=16 missing data", "value": 13.8, "unit": "%"},
      {"measurement": "patients with clinical remission (primary endpoint) at Week 10", "setting": "[1]; pooled 30 and 45 mg, Full Analysis Set, of 116 evaluated", "value": 16},
      {"measurement": "advantage in clinical remission over placebo", "setting": "[1]; pooled treatment groups at week 10, non-steroid patient population", "value": 11.4, "unit": "%"},
      {"measurement": "clinical remission at week 10", "setting": "[1]; pooled treatment groups, non-steroid patient population (no concurrent corticosteroids)", "value": 14.7, "unit": "%"},
      {"measurement": "Clinical Remission Rate at Week 50 (steroid-free)", "setting": "[2]; 10 mg", "value": 38.5, "unit": "%"},
      {"measurement": "Number of Patients with Clinical Remission at Week 50 (steroid-free)", "setting": "[2]; 10 mg, N10 = 22", "value": 5},
      {"measurement": "Mean time to symptomatic UC relapse", "setting": "[2]; 10 mg, N = 45", "value": 231.7, "unit": "days"},
      {"measurement": "Clinical Remission Rate at Week 50", "setting": "[2]; 10 mg, n = 26/35", "value": 42.3, "unit": "%"},
      {"measurement": "Number of Patients with Clinical Remission at Week 50", "setting": "[2]; 10 mg, n = 26/35 evaluated/total", "value": 11},
      {"measurement": "Endoscopic Healing Rate at Week 50", "setting": "[2]; 10 mg, n = 28/35", "value": 53.6, "unit": "%"},
      {"measurement": "Number of Patients Meeting Endpoint (Endoscopic Healing at Week 50)", "setting": "[2]; 10 mg, n = 28/35", "value": 15},
      {"measurement": "delta (Δ) vs placebo in clinical remission at Week 50", "setting": "[2]; 30 mg, 95% CI 3.2%-59.3%", "value": 33.8, "unit": "%"},
      {"measurement": "Clinical Remission Rate at Week 50 (steroid-free)", "setting": "[2]; 30 mg", "value": 66.7, "unit": "%"},
      {"measurement": "Number of Patients with Clinical Remission at Week 50 (steroid-free)", "setting": "[2]; 30 mg, N30 = 22", "value": 8},
      {"measurement": "Mean time to symptomatic UC relapse", "setting": "[2]; 30 mg, N = 40", "value": 221.9, "unit": "days"},
      {"measurement": "Clinical Remission Rate at Week 50", "setting": "[2]; 30 mg, n = 26/29", "value": 61.5, "unit": "%"},
      {"measurement": "Endoscopic Healing Rate at Week 50", "setting": "[2]; 30 mg, n = 26/29", "value": 73.1, "unit": "%"},
      {"measurement": "Number of Patients Meeting Endpoint (Endoscopic Healing at Week 50)", "setting": "[2]; 30 mg, n = 26/29", "value": 19},
      {"measurement": "Number of Patients with Clinical Remission at Week 50", "setting": "[2]; 30 mg, n = 26/29 evaluated/total", "value": 16},
      {"measurement": "odds ratio (30 mg IMU-838/Placebo) for clinical remission at Week 50", "setting": "[2]; 30 mg, two-sided Pearson's chi-square p=0.0358", "value": 4.16},
      {"measurement": "safety and tolerability", "setting": "[3]; induction phase, 10, 30, 45 mg/day", "value": "safe and well-tolerated"},
      {"measurement": "Incidence of Liver TEAEs", "setting": "[3]; maintenance phase, 10 mg", "value": 2.2, "unit": "%"},
      {"measurement": "Incidence of Renal TEAEs", "setting": "[3]; maintenance phase, 10 mg", "value": 2.2, "unit": "%"},
      {"measurement": "Incidence of Serious TEAEs", "setting": "[3]; maintenance phase, 10 mg", "value": 6.7, "unit": "%"},
      {"measurement": "Incidence of TEAEs", "setting": "[3]; maintenance phase, 10 mg, N10 = 45", "value": 35.6, "unit": "%"},
      {"measurement": "Incidence of TEAEs of Special Interest", "setting": "[3]; maintenance phase, 10 mg", "value": 0.0, "unit": "%"},
      {"measurement": "Incidence of Liver TEAEs", "setting": "[3]; maintenance phase, 30 mg", "value": 0.0},
      {"measurement": "Incidence of Renal TEAEs", "setting": "[3]; maintenance phase, 30 mg", "value": 5, "unit": "%"},
      {"measurement": "Incidence of Serious TEAEs", "setting": "[3]; maintenance phase, 30 mg", "value": 5, "unit": "%"},
      {"measurement": "Incidence of TEAEs", "setting": "[3]; maintenance phase, 30 mg, N30 = 40", "value": 40, "unit": "%"},
      {"measurement": "Incidence of TEAEs of Special Interest", "setting": "[3]; maintenance phase, 30 mg", "value": 5, "unit": "%"},
      {"measurement": "safety and tolerability", "setting": "[3]; maintenance phase, 10 and 30 mg", "value": "safe and well tolerated"},
      {"measurement": "safety profile", "setting": "[4]; 30 mg and 45 mg doses", "value": "favorable safety profile"},
      {"measurement": "suppression of MRI activity", "setting": "[4]; 30 mg dose, 24-weeks of treatment", "value": 70, "unit": "%"},
      {"measurement": "half-life", "setting": "[5]", "value": "approximately 30 h"},
      {"measurement": "potency against human DHODH", "setting": "human DHODH", "value": "submicromolar potency"},
      {"measurement": "T-lymphocyte proliferation", "setting": "[6]", "value": "inhibited"},
      {"measurement": "secretion of IL-17 and IFNγ", "setting": "[7]", "value": "inhibited"}
    ]},
    {"smiles": "COc1cccc(-c2ccc(NC(=O)C3=C(C(=O)O)CCC3)c(F)c2)c1", "note": "[Vidofludimus, 2-((3-fluoro-3′-methoxy-[1,1′-biphenyl]-4-yl)carbamoyl)cyclopent-1-enecarboxylic acid]", "values": [
      {"measurement": "number of partial responders", "setting": "patients with CD; 35 mg oral once daily", "value": 4},
      {"measurement": "partial responders", "setting": "patients with CD; 35 mg oral once daily", "value": 29, "unit": "%"},
      {"measurement": "patients in steroid-free remission (complete responders)", "setting": "patients with CD; 35 mg oral once daily", "value": 57, "unit": "%"},
      {"measurement": "number of patients in steroid-free remission (complete responders)", "setting": "patients with CD; out of 14, 35 mg oral once daily", "value": 8},
      {"measurement": "number of partial responders", "setting": "patients with UC; 35 mg oral once daily", "value": 5},
      {"measurement": "partial responders", "setting": "patients with UC; 35 mg oral once daily", "value": 42, "unit": "%"},
      {"measurement": "patients in steroid-free remission (complete responders)", "setting": "patients with UC; 35 mg oral once daily", "value": 50, "unit": "%"},
      {"measurement": "number of patients in steroid-free remission (complete responders)", "setting": "patients with UC; out of 12, 35 mg oral once daily", "value": 6},
      {"measurement": "tolerability / drug-related serious adverse events", "setting": "[8]", "value": "well tolerated and no drug-related serious adverse events were observed"},
      {"measurement": "diarrhoea, alopecia, neutropenia or liver enzyme elevations", "setting": "[9]", "value": "no notable increases"},
      {"measurement": "safety profile compared to placebo", "setting": "[9]", "value": "overall similar safety profile as compared to placebo"}
    ]}
  ]
}
